Reference: the supplement of paper PMC10307832

How the values were obtained:
Test in all cases: relative viability (nuclei count vs DMSO), 5 days (fraction); higher = more cells survive
NCI-H522 = test system: NCI-H522
Method in brief: (§1)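 The day after seeding in 1536-well plates, lung cancer cell lines were treated by pin tool with a single drug, or with a fixed anchor-drug dose together with five library-drug doses (not always all listed) in √10 steps. After 5 days, a combined fix-and-stain solution (final 0.05% Triton X-100, 1% formaldehyde, 1 ug/ml Hoechst) was added. Nuclei counted on 4× images gave relative viability as treated counts over vehicle counts, reported as the median of duplicate plates.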

NCI-H2170 = test system: NCI-H2170
Method in brief: as §1

NCI-H1355 = test system: NCI-H1355
Method in brief: as §1

COR-L23 = test system: COR-L23
Method in brief: as §1

NCI-H2347 = test system: NCI-H2347
Method in brief: as §1

NCI-H1734 = test system: NCI-H1734
Method in brief: as §1

NCI-H1755 = test system: NCI-H1755
Method in brief: as §1

NCI-H358 = test system: NCI-H358
Method in brief: as §1

NCI-H838 = test system: NCI-H838
Method in brief: as §1

COR-L 105 = test system: COR-L 105
Method in brief: as §1

NCI-H1993 = test system: NCI-H1993
Method in brief: as §1

NCI-H2009 = test system: NCI-H2009
Method in brief: as §1

UMC-11 = test system: UMC-11
Method in brief: as §1

NCI-H647 = test system: NCI-H647
Method in brief: as §1

NCI-H1793 = test system: NCI-H1793
Method in brief: as §1

HCC-15 = test system: HCC-15
Method in brief: as §1

HOP-62 = test system: HOP-62
Method in brief: as §1

HARA = test system: HARA
Method in brief: as §1

NCI-H1395 = test system: NCI-H1395
Method in brief: as §1

NCI-H1792 = test system: NCI-H1792
Method in brief: as §1

SK-MES-1 = test system: SK-MES-1
Method in brief: as §1

## Nc1ccn([C@@H]2O[C@H](CO)[C@@H](O)[C@@H]2O)c(=O)n1 [Cytarabine] + Nc1ncn([C@H]2C[C@H](O)[C@@H](CO)O2)c(=O)n1 [Decitabine] (partner 2 µM)
NCI-H522; first compound 0.005 µM
  relative viability: 0.653
NCI-H522; first compound 0.01581 µM
  relative viability: 0.608
NCI-H522; first compound 0.05 µM
  relative viability: 0.628
NCI-H522; first compound 0.1581 µM
  relative viability: 0.484
NCI-H522; first compound 0.5 µM
  relative viability: 0.335
NCI-H2170; first compound 0.005 µM
  relative viability: 0.393
NCI-H2170; first compound 0.01581 µM
  relative viability: 0.346
NCI-H2170; first compound 0.05 µM
  relative viability: 0.355
NCI-H2170; first compound 0.1581 µM
  relative viability: 0.254
NCI-H2170; first compound 0.5 µM
  relative viability: 0.241
NCI-H1355; first compound 0.005 µM
  relative viability: 0.349
NCI-H1355; first compound 0.01581 µM
  relative viability: 0.332
NCI-H1355; first compound 0.05 µM
  relative viability: 0.337
NCI-H1355; first compound 0.1581 µM
  relative viability: 0.242
NCI-H1355; first compound 0.5 µM
  relative viability: 0.255
COR-L23; first compound 0.005 µM
  relative viability: 0.43
COR-L23; first compound 0.01581 µM
  relative viability: 0.377
COR-L23; first compound 0.05 µM
  relative viability: 0.341
COR-L23; first compound 0.1581 µM
  relative viability: 0.205
COR-L23; first compound 0.5 µM
  relative viability: 0.156
NCI-H2347; first compound 0.005 µM
  relative viability: 0.61
NCI-H2347; first compound 0.01581 µM
  relative viability: 0.56
NCI-H2347; first compound 0.05 µM
  relative viability: 0.507
NCI-H2347; first compound 0.1581 µM
  relative viability: 0.537
NCI-H2347; first compound 0.5 µM
  relative viability: 0.573
NCI-H1734; first compound 0.005 µM
  relative viability: 0.439
NCI-H1734; first compound 0.01581 µM
  relative viability: 0.27
NCI-H1734; first compound 0.05 µM
  relative viability: 0.188
NCI-H1734; first compound 0.1581 µM
  relative viability: 0.131
NCI-H1734; first compound 0.5 µM
  relative viability: 0.138
NCI-H1755; first compound 0.005 µM
  relative viability: 0.705
NCI-H1755; first compound 0.01581 µM
  relative viability: 0.619
NCI-H1755; first compound 0.05 µM
  relative viability: 0.659
NCI-H1755; first compound 0.1581 µM
  relative viability: 0.472
NCI-H1755; first compound 0.5 µM
  relative viability: 0.424
NCI-H358; first compound 0.005 µM
  relative viability: 0.229
NCI-H358; first compound 0.01581 µM
  relative viability: 0.205
NCI-H358; first compound 0.05 µM
  relative viability: 0.226
NCI-H358; first compound 0.1581 µM
  relative viability: 0.133
NCI-H358; first compound 0.5 µM
  relative viability: 0.107
NCI-H838; first compound 0.005 µM
  relative viability: 0.476
NCI-H838; first compound 0.01581 µM
  relative viability: 0.407
NCI-H838; first compound 0.05 µM
  relative viability: 0.427
NCI-H838; first compound 0.1581 µM
  relative viability: 0.311
NCI-H838; first compound 0.5 µM
  relative viability: 0.274
COR-L 105; first compound 0.005 µM
  relative viability: 0.623
COR-L 105; first compound 0.01581 µM
  relative viability: 0.642
COR-L 105; first compound 0.05 µM
  relative viability: 0.426
COR-L 105; first compound 0.1581 µM
  relative viability: 0.398
COR-L 105; first compound 0.5 µM
  relative viability: 0.303
NCI-H1993; first compound 0.005 µM
  relative viability: 0.584
NCI-H1993; first compound 0.01581 µM
  relative viability: 0.441
NCI-H1993; first compound 0.05 µM
  relative viability: 0.516
NCI-H1993; first compound 0.1581 µM
  relative viability: 0.471
NCI-H1993; first compound 0.5 µM
  relative viability: 0.206
NCI-H2009; first compound 0.005 µM
  relative viability: 0.325
NCI-H2009; first compound 0.01581 µM
  relative viability: 0.363
NCI-H2009; first compound 0.05 µM
  relative viability: 0.342
NCI-H2009; first compound 0.1581 µM
  relative viability: 0.243
NCI-H2009; first compound 0.5 µM
  relative viability: 0.189
UMC-11; first compound 0.005 µM
  relative viability: 0.547
UMC-11; first compound 0.01581 µM
  relative viability: 0.521
UMC-11; first compound 0.05 µM
  relative viability: 0.328
UMC-11; first compound 0.1581 µM
  relative viability: 0.32
UMC-11; first compound 0.5 µM
  relative viability: 0.306
NCI-H647; first compound 0.005 µM
  relative viability: 0.307
NCI-H647; first compound 0.01581 µM
  relative viability: 0.239
NCI-H647; first compound 0.05 µM
  relative viability: 0.258
NCI-H647; first compound 0.1581 µM
  relative viability: 0.108
NCI-H647; first compound 0.5 µM
  relative viability: 0.0719
NCI-H1793; first compound 0.005 µM
  relative viability: 0.585
NCI-H1793; first compound 0.01581 µM
  relative viability: 0.35
NCI-H1793; first compound 0.05 µM
  relative viability: 0.336
NCI-H1793; first compound 0.1581 µM
  relative viability: 0.212
NCI-H1793; first compound 0.5 µM
  relative viability: 0.237
HCC-15; first compound 0.005 µM
  relative viability: 0.511
HCC-15; first compound 0.01581 µM
  relative viability: 0.528
HCC-15; first compound 0.05 µM
  relative viability: 0.594
HCC-15; first compound 0.1581 µM
  relative viability: 0.462
HCC-15; first compound 0.5 µM
  relative viability: 0.464
HOP-62; first compound 0.005 µM
  relative viability: 0.222
HOP-62; first compound 0.01581 µM
  relative viability: 0.189
HOP-62; first compound 0.05 µM
  relative viability: 0.179
HOP-62; first compound 0.1581 µM
  relative viability: 0.162
HOP-62; first compound 0.5 µM
  relative viability: 0.126
HARA; first compound 0.005 µM
  relative viability: 0.448
HARA; first compound 0.01581 µM
  relative viability: 0.236
HARA; first compound 0.05 µM
  relative viability: 0.347
HARA; first compound 0.1581 µM
  relative viability: 0.173
HARA; first compound 0.5 µM
  relative viability: 0.18
NCI-H1395; first compound 0.005 µM
  relative viability: 0.634
NCI-H1395; first compound 0.01581 µM
  relative viability: 0.688
NCI-H1395; first compound 0.05 µM
  relative viability: 0.529
NCI-H1395; first compound 0.1581 µM
  relative viability: 0.368
NCI-H1395; first compound 0.5 µM
  relative viability: 0.364
NCI-H1792; first compound 0.01581 µM
  relative viability: 0.647
NCI-H1792; first compound 0.05 µM
  relative viability: 0.387
NCI-H1792; first compound 0.1581 µM
  relative viability: 0.251
NCI-H1792; first compound 0.5 µM
  relative viability: 0.205
SK-MES-1; first compound 0.005 µM
  relative viability: 0.29
SK-MES-1; first compound 0.01581 µM
  relative viability: 0.211
SK-MES-1; first compound 0.05 µM
  relative viability: 0.205
SK-MES-1; first compound 0.1581 µM
  relative viability: 0.183
SK-MES-1; first compound 0.5 µM
  relative viability: 0.155
